The numbers were not newly measured in patent US5631296A, “Drugs containing S(+)-ibuprofen” (priority 1992, dated 1997), which cites them from elsewhere.

For series [1], the system named is serum proteins. The following applies: stereoselective.
The test system of series [2] is cyclooxygenase subunit of the enzyme prostaglandin synthease.
The conditions of series [3]: comparatively low dosage.
Series [4] relates to rhesus monkeys.
Series [5] relates to skin inflammation. Conditions: healthy test subjects, relative to racemate.
Series [6] has as its system arthritic patients. Conditions: daily dose well below the conventional racemate dosage.
For series [7], the system named is humans. Conditions: U.S. Pat. No. 4,851,444.

For `CC(C)Cc1ccc(C(C)C(=O)O)cc1` (racemic) [racemate, 2-(4-isobutylphenyl)propionic acid], the “toxic effects directly attributable to accumulation of R(-) in fatty tissue” value (chronic administration of the racemate) is recorded as “no toxic effects have so far been observed”. For the setting “in vivo”, the “accumulation of the R(-) enantiomer in the fatty tissue” value is reported as “leads to an accumulation of the R(-) enantiomer in the fatty tissue”.
For the molecule `CC(C)Cc1ccc([C@@H](C)C(=O)O)cc1` [R(-)-ibuprofen], in series [1], the “binding to the serum proteins” value is recorded as “competing for the binding site”.
Turning to `CC(C)Cc1ccc([C@H](C)C(=O)O)cc1` [S(+)-ibuprofen], the “inhibition of prostaglandin synthesis (mechanism of action found in vitro)” value in series [2] is listed as “found in vitro only for the S(+) enantiomer”. Moreover, the “binding to the serum proteins” value in series [1] is given as “competing for the binding site”. For the same molecule, in series [3], the “therapeutic action relative to the racemate” value is recorded as “the same therapeutic action as the racemate”. In series [4], the analgesic action entry is “stronger analgesic action”. Besides, in series [5], the “dose-effect curve in skin inflammation model” value is listed as “shifted towards lower dosage relative to that of the racemate”. The “therapeutic effect in arthritic patients” value in series [6] is “good therapeutic effect”. In addition, in series [7], the “onset and intensity of analgesic effect versus identical amounts of the racemate” value is “starts more rapidly and is more intense”.
